Measurements published in ChEMBL document CHEMBL1201862, “PubChem BioAssay data set” (2004).
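Growth conditions: 96-well plates. Treatment: test compound, 48 hours, 5 concentrations. Analysis: linear interpolation between bracketing concentrations; unreached endpoints set to highest concentration. GI50: concentration for 50% inhibition of growth.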 Calls of active or inactive are those of the source. Rule as the data show it: active = GI50 up to about 1.1 µM and inactive = higher.

Tests used:
Experiment in all cases: NCI anticancer screen, dose series, 48 h
[1] = test system: IGROV-1
[2] = test system: SR
[3] = test system: PC-3
[4] = test system: DU-145
[5] = test system: MDA-MB-435
[6] = test system: NCI-H522
[7] = test system: HT-29
[8] = test system: U-251
[9] = test system: A549
[10] = test system: OVCAR-5
[11] = test system: CCRF-CEM
[12] = test system: SF-539
[13] = test system: HCT-116
[14] = test system: SK-MEL-28
[15] = test system: NCI-H226
[16] = test system: HCT-15
[17] = test system: SK-OV-3
[18] = test system: Malme-3M
[19] = test system: BT-549
[20] = test system: M14
[21] = test system: NCI-H460
[22] = test system: SN12C
[23] = test system: OVCAR-8
[24] = test system: Hs-578T
[25] = test system: OVCAR-4
[26] = test system: RXF 393
[27] = test system: UACC-62
[28] = test system: CAKI-1
[29] = test system: SW-620
[30] = test system: COLO 205
[31] = test system: SK-MEL-5
[32] = test system: OVCAR-3
[33] = test system: HOP-62
[34] = test system: ACHN
[35] = test system: HL-60
[36] = test system: K562
[37] = test system: UACC-257
[38] = test system: SF-268
[39] = test system: EKVX
[40] = test system: NCI-H23
[41] = test system: RPMI-8226
[42] = test system: A498
[43] = test system: MOLT-4
[44] = test system: SNB-19
[45] = test system: NCI/ADR-RES
[46] = test system: TK-10
[47] = test system: MDA-MB-231
[48] = test system: HOP-92
[49] = test system: 786-0
[50] = test system: SF-295
[51] = test system: MCF7
[52] = test system: LOX IMVI
[53] = test system: KM12
[54] = test system: HCC 2998
[55] = test system: T47D
[56] = test system: UO-31

SMILES: COC1OC(C)/C(=N/O)C2OC(C)(C)OC12 (stereo unspecified)
- GI50 [1]: > 100 µM (inactive)
- GI50 [2]: > 100 µM (inactive)
- GI50 [3]: > 100 µM (inactive)
- GI50 [4]: > 100 µM (inactive)
- GI50 [5]: > 100 µM (inactive)
- GI50 [6]: > 100 µM (inactive)
- GI50 [7]: > 100 µM (inactive)
- GI50 [8]: > 100 µM (inactive)
- GI50 [9]: > 100 µM (inactive)
- GI50 [10]: > 100 µM (inactive)
- GI50 [11]: > 100 µM (inactive)
- GI50 [12]: > 100 µM (inactive)
- GI50 [13]: > 100 µM (inactive)
- GI50 [14]: > 100 µM (inactive)
- GI50 [15]: > 100 µM (inactive)
- GI50 [16]: > 100 µM
- GI50 [17]: > 100 µM (inactive)
- GI50 [18]: > 100 µM (inactive)
- GI50 [19]: > 100 µM (inactive)
- GI50 [20]: > 100 µM (inactive)
- GI50 [21]: > 100 µM (inactive)
- GI50 [22]: > 100 µM (inactive)
- GI50 [23]: > 100 µM (inactive)
- GI50 [24]: > 100 µM (inactive)
- GI50 [25]: > 100 µM (inactive)
- GI50 [26]: > 100 µM (inactive)
- GI50 [27]: > 100 µM (inactive)
- GI50 [28]: > 100 µM (inactive)
- GI50 [29]: > 100 µM (inactive)
- GI50 [30]: > 100 µM (inactive)
- GI50 [31]: > 100 µM (inactive)
- GI50 [32]: > 100 µM (inactive)
- GI50 [33]: > 100 µM (inactive)
- GI50 [34]: > 100 µM (inactive)
- GI50 [35]: > 100 µM (inactive)
- GI50 [36]: > 100 µM (inactive)
- GI50 [37]: > 100 µM (inactive)
- GI50 [38]: > 100 µM (inactive)
- GI50 [39]: > 100 µM (inactive)
- GI50 [40]: > 100 µM (inactive)
- GI50 [41]: > 100 µM (inactive)
- GI50 [42]: > 100 µM (inactive)
- GI50 [43]: > 100 µM (inactive)
- GI50 [44]: > 100 µM (inactive)
- GI50 [45]: > 100 µM (inactive)
- GI50 [46]: > 100 µM (inactive)
- GI50 [47]: > 100 µM (inactive)
- GI50 [48]: > 100 µM (inactive)
- GI50 [49]: > 100 µM (inactive)
- GI50 [50]: > 100 µM (inactive)
- GI50 [51]: 78.7 µM (inactive)
- GI50 [52]: > 100 µM (inactive)
- GI50 [53]: > 100 µM (inactive)
- GI50 [54]: > 100 µM (inactive)
- GI50 [55]: > 100 µM (inactive)
- GI50 [56]: > 100 µM (inactive)
